Converted amounts (≈) assume the structure as drawn.
Assays:
Human Serum Albumin = Human Serum Albumin (Homo sapiens, UniProt P02768); assay: Binding fluorimetric assay (tryptophan quenching); details: fixed concentration of HSA titrated with different amounts of compound
Procedure: The solutions were mixed and after allowing 30 minutes at room temperature to reach the equilibrium conditions, the spectra were recorded. […] The percentages obtained were plotted against the concentrations used and the KD values were calculated using GraphPad software (version 5.0).

[1] = system: Staphylococcus aureus ATCC 43300 (MRSA); assay: MIC against resistant clinical isolates; type: cell-based; details: resistance profile PEN
Procedure: (§1) Bacterial strains were obtained from the ATCC or CCUG culture collections or present in the authors' collection of clinical isolates. Compounds were re-suspended in dimethyl sulfoxyde (DMSO) at a final concentration of 10 mg/ml and subsequently diluted in the culture medium. The minimum inhibitory concentrations (MICs) of the compounds of the invention were determined using the microdilution broth method using Mueller-Hinton broth as recommended by the Clinical Laboratory Standards Institute (CLSI [11]). Bacterial inoculum was 5×10^4 CFU/well. MICs were recorded after 18-24 hours incubation at 35-37° C.
(§2) The Antibacterial activity of compound 28 was also tested on a panel of Gram-negative and Gram-positive clinical isolates, showing various antimicrobial susceptibility profiles (Table 4). The class of drugs for which the isolate was resistant to is indicated in column 2 (PEN, penicillins; ES-CEPH, expanded-spectrum cephalosporins; CARB, carbapenems; AZT; aztreonam; AG, aminoglycosides; FQ, fluoroquinolones; SXT, trimethoprim/sulfamethoxazole; FOS, fosfomycin; GLY, glycopeptides; LNZ, linezolid; COL-R, colistin resistant; COL-S colistin sensitive; PDR, poly-drug resistant).

[2] = system: Pseudomonas aeruginosa VR143/97; assay: MIC against resistant clinical isolates; type: cell-based; details: resistance profile PEN, ES-CEPH, CARB, MON, AG, FQ
Procedure: as §1, §2

Klebsiella pneumoniae B2 = assay: MIC against resistant clinical isolates; type: cell-based; details: COL-R
Procedure: as §1, §2

[3] = system: Klebsiella pneumoniae KP0787; assay: MIC against resistant clinical isolates; type: cell-based; details: resistance profile PDR
Procedure: as §1, §2

[4] = system: Klebsiella pneumoniae 207-1; assay: MIC against resistant clinical isolates; type: cell-based; details: 2071, COL-S
Procedure: as §1, §2

[5] = system: Klebsiella pneumoniae 167R; assay: MIC against resistant clinical isolates; type: cell-based; details: resistance profile PDR
Procedure: as §1, §2

[6] = system: Staphylococcus haemolyticus SI-6/2011; assay: MIC against resistant clinical isolates; type: cell-based; details: SI6/2011, resistance profile AG
Procedure: as §1, §2

[7] = system: Staphylococcus warneri SI-5/2011; assay: MIC against resistant clinical isolates; type: cell-based; details: SI5/2011, resistance profile PEN, AG
Procedure: as §1, §2

[8] = system: Klebsiella pneumoniae 7023; assay: MIC against resistant clinical isolates; type: cell-based; details: resistance profile PEN, ES-CEPH, CARB, AG, FQ, SXT
Procedure: as §1, §2

Klebsiella pneumoniae B1 = assay: MIC against resistant clinical isolates; type: cell-based; details: COL-S
Procedure: as §1, §2

[9] = system: Klebsiella pneumoniae BO4; assay: MIC against resistant clinical isolates; type: cell-based; details: COL-R
Procedure: as §1, §2

[10] = system: Klebsiella pneumoniae 207-2; assay: MIC against resistant clinical isolates; type: cell-based; details: 2072, COL-R
Procedure: as §1, §2

[11] = system: Staphylococcus aureus ATCC 700699 (VanA); assay: MIC against resistant clinical isolates; type: cell-based; details: ATCC700699, resistance profile GLY
Procedure: as §1, §2

[12] = system: Klebsiella pneumoniae BO1; assay: MIC against resistant clinical isolates; type: cell-based; details: COL-S
Procedure: as §1, §2

[13] = system: Pseudomonas aeruginosa 14X-34; assay: MIC against resistant clinical isolates; type: cell-based; details: 14X34, resistance profile PDR
Procedure: as §1, §2

[14] = system: Pseudomonas aeruginosa 101/1477; assay: MIC against resistant clinical isolates; type: cell-based; details: resistance profile PEN, ES-CEPH, CARB, AG
Procedure: as §1, §2

Escherichia coli CCUG^T = assay: Bactericidal activity (MBC); type: cell-based
[15] = system: Enterococcus faecalis ATCC 19433; assay: Bactericidal activity (MBC); type: cell-based; details: ATCC19433
Burkholderia cepacia RII [16] = assay: Bactericidal activity (MBC); type: cell-based
[17] = system: Achromobacter xylosoxidans AX 22; assay: Bactericidal activity (MBC); type: cell-based; details: AX22
[18] = system: Alcaligenes faecalis 424/98; assay: Antimicrobial susceptibility testing, MIC by microdilution broth method; type: cell-based; details: Mueller-Hinton broth, 18-24 hours at 35-37° C., read-out: MIC
Procedure: as §1

[19] = system: Achromobacter xylosoxidans AX 22; assay: as above; type: cell-based; details: AX22, Mueller-Hinton broth, 18-24 hours at 35-37° C., read-out: MIC
Procedure: as §1

[20] = system: Enterococcus faecalis ATCC 19433; assay: as above; type: cell-based; details: ATCC19433, Mueller-Hinton broth, 18-24 hours at 35-37° C., read-out: MIC
Procedure: as §1

[21] = system: Staphylococcus aureus ATCC 25923; assay: as above; type: cell-based; details: ATCC25923, Mueller-Hinton broth, 18-24 hours at 35-37° C., read-out: MIC
Procedure: as §1

[22] = system: Klebsiella pneumoniae ATCC 13833; assay: as above; type: cell-based; details: ATCC13833, Mueller-Hinton broth, 18-24 hours at 35-37° C., read-out: MIC
Procedure: as §1

Burkholderia cepacia RII [23] = assay: as above; type: cell-based; details: Mueller-Hinton broth, 18-24 hours at 35-37° C., read-out: MIC
Procedure: as §1

[24] = system: Stenotrophomonas maltophilia 634/08; assay: as above; type: cell-based; details: Mueller-Hinton broth, 18-24 hours at 35-37° C., read-out: MIC
Procedure: as §1

[25] = system: Bacillus subtilis ATCC 6633; assay: as above; type: cell-based; details: ATCC6633, Mueller-Hinton broth, 18-24 hours at 35-37° C., read-out: MIC
Procedure: as §1

[26] = system: Chryseobacterium meningosepticum CCUG 4310; assay: Bactericidal activity (MBC); type: cell-based; details: Elizabethkingia meningoseptica, CCUG4310
[27] = system: Stenotrophomonas maltophilia 634/08; assay: Bactericidal activity (MBC); type: cell-based
[28] = system: Bacillus subtilis ATCC 6633; assay: Bactericidal activity (MBC); type: cell-based; details: ATCC6633
[29] = system: Alcaligenes faecalis 424/98; assay: Bactericidal activity (MBC); type: cell-based

Chain of Human Serum Albumin (P02768 25-609): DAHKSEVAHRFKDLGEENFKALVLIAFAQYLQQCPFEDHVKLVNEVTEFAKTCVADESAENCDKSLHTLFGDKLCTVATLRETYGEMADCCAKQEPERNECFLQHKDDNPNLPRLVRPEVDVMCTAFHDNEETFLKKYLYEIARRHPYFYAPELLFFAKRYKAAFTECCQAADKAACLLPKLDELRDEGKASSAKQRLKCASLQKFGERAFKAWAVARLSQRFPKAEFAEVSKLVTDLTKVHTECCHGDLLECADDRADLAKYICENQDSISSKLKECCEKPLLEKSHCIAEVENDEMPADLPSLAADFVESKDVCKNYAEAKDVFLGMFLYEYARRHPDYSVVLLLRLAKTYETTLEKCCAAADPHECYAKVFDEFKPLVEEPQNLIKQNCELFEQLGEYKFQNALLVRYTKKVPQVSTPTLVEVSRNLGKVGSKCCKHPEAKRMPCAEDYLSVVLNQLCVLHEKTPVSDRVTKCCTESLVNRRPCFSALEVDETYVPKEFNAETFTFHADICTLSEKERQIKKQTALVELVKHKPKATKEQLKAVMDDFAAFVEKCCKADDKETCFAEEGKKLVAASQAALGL

Which results are given for `N=C(N)NCCCCCCCCN(CCCCCCCCNC(=N)NCC1CC1)C(=O)N(CCCCCCCCNC(=N)N)CCCCCCCCNC(=N)NCC1CC1` [Compound 28, 1,3-bis(8-(3-(cyclopropylmethyl)guanidino)octyl)-1,3-bis(8-guanidinooctyl)urea]?
intrinsic fluorescence decrease of HSA (Human Serum Albumin): scarce intrinsic fluorescence decrease; MIC [1]: 4 µg/mL (≈ 4.73 µM); MIC [2]: 8 µg/mL (≈ 9.46 µM); MIC (Klebsiella pneumoniae B2): 4 µg/mL (≈ 4.73 µM); MIC [3]: 1 µg/mL (≈ 1.18 µM); MIC [4]: 4 µg/mL (≈ 4.73 µM); MIC [5]: 4 µg/mL (≈ 4.73 µM); MIC [6]: 2 µg/mL (≈ 2.37 µM); MIC [7]: 2 µg/mL (≈ 2.37 µM); MIC [8]: 2 µg/mL (≈ 2.37 µM); MIC (Klebsiella pneumoniae B1): 4 µg/mL (≈ 4.73 µM); MIC [9]: 8 µg/mL (≈ 9.46 µM); MIC [10]: 8 µg/mL (≈ 9.46 µM); MIC [11]: 4 µg/mL (≈ 4.73 µM); MIC [12]: 4 µg/mL (≈ 4.73 µM); MIC [13]: 8 µg/mL (≈ 9.46 µM); MIC [14]: 8 µg/mL (≈ 9.46 µM); MBC (Escherichia coli CCUG^T): 1 µg/mL (≈ 1.18 µM); MBC [15]: < 0.125 µg/mL; MBC (Burkholderia cepacia RII [16]): 8 µg/mL (≈ 9.46 µM); MBC [17]: 8 µg/mL (≈ 9.46 µM); MIC [18]: 8 µg/mL (≈ 9.46 µM); MIC [19]: 8 µg/mL (≈ 9.46 µM); MIC [20]: < 0.125 µg/mL; MIC [21]: 2 µg/mL (≈ 2.37 µM); MIC [22]: 1 µg/mL (≈ 1.18 µM); MIC (Burkholderia cepacia RII [23]): 8 µg/mL (≈ 9.46 µM); MIC [24]: 16 µg/mL (≈ 18.9 µM); MIC [25]: 0.5 µg/mL (≈ 0.591 µM); MBC [26]: 64 µg/mL (≈ 75.7 µM); MBC [27]: 16 µg/mL (≈ 18.9 µM); MBC [28]: 0.5 µg/mL (≈ 0.591 µM); MBC [29]: 8 µg/mL (≈ 9.46 µM)

Source: patent publication US10004702B2, “Linear guanidine derivatives, methods of preparation and uses thereof” (LEAD DISCOVERY SIENA S.R.L., priority 2014, dated 2018)
